Paper PMC7449170, “ATI-2173, a Novel Liver-Targeted Non-Chain-Terminating Nucleotide for Hepatitis B Virus Cure Regimens” (Antimicrobial Agents and Chemotherapy, 2020)
Entries after “also recorded” stand apart in the source; their conditions may differ.

Assays:
[1] = Protein binding; type: in vitro ADME; conditions: data not shown
[2] = tested on: human bone marrow mononuclear cells; assay: Cytotoxicity in bone marrow mononuclear cells (CellTiter-Glo); conditions: at 100 μM or greater, 72 h
Experimental: HK-2 human kidney cells were obtained from ATCC (Manassas, VA) and cultured in Gibco Keratinocyte serum-free medium (Thermo Fisher Scientific, Waltham, MA) supplemented with 10% FBS (Peak Serum, Wellington, CO). Human skeletal muscle cells were obtained from Lonza (Walkersville, MD) and cultured in SkGM-2 skeletal muscle cell growth medium-2 (Lonza). Both HK-2 and skeletal muscle cells were cultured humidified at 37°C and 5% CO2. Cryopreserved human primary hepatocytes and medium were received from Lonza. Cryopreserved iCell cardiomyocytes and cardiomyocyte medium were purchased from Stem Cell Technologies (Vancouver, BC, Canada). Cryopreserved human bone marrow mononuclear cells were purchased from Lonza with HemaTox Myeloid medium purchased from [sequence] […] All cryopreserved cells (human primary hepatocytes, iCell cardiomyocytes, and human bone marrow mononuclear cells) were stored in vapor phase liquid nitrogen until the day of plating. […] Serial dilutions of compounds in DMSO were as follows: 100, 10, 1, 0.1, 0.01, 0.001, 0.0001, and 0.00001 μM (final concentration of DMSO in medium was 0.5%).
HK-2 and skeletal muscle cells were seeded into 96-well plates at 5,000 cells/well and incubated overnight at 37°C and 5% CO2. Human hepatocytes were thawed, diluted in hepatocyte plating medium (Lonza) and seeded into a 96-well, collagen-coated plates at 2.5 × 10^4 cells/well. Hepatocytes were incubated for 6 h at 37°C in 5% CO2, then the medium was aspirated and replaced with hepatocyte culture medium at 50 μl/well, and finally incubated overnight. The iCell cardiomyocytes were thawed, suspended in iCell thawing/plating medium, and plated at 4 × 10^4 cells/well in a gelatin-coated 96-well plate. iCells were incubated for 2 days at 37°C in 7% CO2. […]
(§1) Following incubation, cells were dosed and incubated for 72 h at 37°C and 5% CO2. Following incubation, the endpoint cell viability CellTiter-Glo 2.0 assay (Promega, San Luis Obispo, CA) was performed and luminescence data collected on a Synergy 4 plate reader (Biotek, Winooski, VT). […]

[3] = tested on: HBV genotype E (AB091255); assay: microbe, parasite or virus in culture; type: cell-based; conditions: Hepatitis B virus, HepG2
[4] = tested on: HBV coreT33N; assay: microbe, parasite or virus in culture; type: cell-based, Hepatitis B virus; conditions: Hepatitis B virus, HepG2
[5] = tested on: influenza virus; type: cell-based
[6] = tested on: HBV coreP25A; assay: microbe, parasite or virus in culture; type: cell-based, Hepatitis B virus; conditions: Hepatitis B virus, HepG2
[7] = tested on: HBV rtS202G+M204I; assay: microbe, parasite or virus in culture; type: cell-based; conditions: Hepatitis B virus, HepG2
[8] = tested on: iCell cardiomyocytes; assay: Cytotoxicity in iCell cardiomyocytes (CellTiter-Glo); conditions: up to 100 μM, 72 h
Experimental: (§2) HK-2 human kidney cells were obtained from ATCC (Manassas, VA) and cultured in Gibco Keratinocyte serum-free medium (Thermo Fisher Scientific, Waltham, MA) supplemented with 10% FBS (Peak Serum, Wellington, CO). Human skeletal muscle cells were obtained from Lonza (Walkersville, MD) and cultured in SkGM-2 skeletal muscle cell growth medium-2 (Lonza). Both HK-2 and skeletal muscle cells were cultured humidified at 37°C and 5% CO2. Cryopreserved human primary hepatocytes and medium were received from Lonza. Cryopreserved iCell cardiomyocytes and cardiomyocyte medium were purchased from Stem Cell Technologies (Vancouver, BC, Canada). Cryopreserved human bone marrow mononuclear cells were purchased from Lonza with HemaTox Myeloid medium purchased from [sequence] […] All cryopreserved cells (human primary hepatocytes, iCell cardiomyocytes, and human bone marrow mononuclear cells) were stored in vapor phase liquid nitrogen until the day of plating. […] Serial dilutions of compounds in DMSO were as follows: 100, 10, 1, 0.1, 0.01, 0.001, 0.0001, and 0.00001 μM (final concentration of DMSO in medium was 0.5%). […]
as §1

[9] = Cell viability (CC50) in HepG2.2.15 cells; conditions: human
[10] = tested on: HBV rtV173L+M204I; assay: microbe, parasite or virus in culture; type: cell-based; conditions: Hepatitis B virus, HepG2
[11] = tested on: HBV rtA181V; assay: microbe, parasite or virus in culture; type: cell-based; conditions: Hepatitis B virus, HepG2
[12] = tested on: SkMC human skeletal muscle cells; assay: Cytotoxicity in skeletal muscle cells (CellTiter-Glo); conditions: at 100 μM or greater, 72 h
Experimental: as §2, §1

[13] = tested on: HBV rtN236T; assay: microbe, parasite or virus in culture; type: cell-based; conditions: Hepatitis B virus, HepG2
[14] = tested on: HepG2 cells; assay: Mitochondrial toxicity, glucose/galactose assay; conditions: 20 mM glucose or 10 mM galactose, up to 100 μM, day 11
[15] = tested on: HBV rtL180M+M204V; assay: microbe, parasite or virus in culture; type: cell-based; conditions: Hepatitis B virus, HepG2
[16] = tested on: HBV rtM204V; assay: microbe, parasite or virus in culture; type: cell-based; conditions: Hepatitis B virus, HepG2
[17] = tested on: HBV genotype A (HE974371); assay: microbe, parasite or virus in culture; type: cell-based; conditions: Hepatitis B virus, HepG2
[18] = tested on: HBV genotype D (U955551); assay: microbe, parasite or virus in culture; type: cell-based; conditions: Hepatitis B virus, HepG2
[19] = tested on: HBV genotype C (AB246345); assay: microbe, parasite or virus in culture; type: cell-based; conditions: Hepatitis B virus, HepG2
[20] = Hepatic extraction in portal vein cannulated monkeys; type: in vivo; conditions: cynomolgus monkeys with portal vein cannulation, single oral 20 mg/kg and intravenous 2 mg/kg, data not shown
[21] = tested on: HBV genotype D; assay: Anti-HBV activity in HepG2.2.15 cells (extracellular HBV DNA by qPCR); type: cell-based; conditions: Hepatitis B virus, 192 h; HepG2.2.15 cells, qPCR, day 8; read-out: EC50, extracellular HBV DNA
Experimental: ATI-2173 was obtained from WuXi SynTheAll. Entecavir (positive control) was obtained from Shanghai Titan Scientific Co., Ltd. HepG2.2.15 cells (derived from human hepatoblastoma cell-like HepG2) contain four 5′ to 3′ tandem copies of the HBV genotype D and were provided by WuXi. HepG2.2.15 cells were cultured in Dulbecco’s modified Eagle medium (DMEM)/F12 (Invitrogen, 11330032) supplemented with 2% fetal bovine serum (FBS) (HyClone, SV30087.03), 1% L-glutamine, 1% minimum essential medium (MEM) nonessential amino acid solution (NEAA), and 1% penicillin-streptomycin solution. QIAamp 96 DNA blood kit was purchased from Qiagen (51162). […] Culture medium containing ATI-2173 or entecavir (serially diluted) was added to cells on day 2 and refreshed on day 5. ATI-2173 dilutions were: 0.0006, 0.0024, 0.0098, 0.0391, 0.1563, 0.6250, 2.5000, and 10.0000 μM. On day 8, cell culture supernatants were collected and DNA was extracted by the QIAamp 96 DNA blood kit. qPCR was run at 95°C for 10 min, then cycled at 95°C for 15 s, 60°C for 1 min, for a total of 40 cycles. HBV DNA content in the samples was calculated according to the standard curve and CT (cycle threshold of qPCR) values of a sample. Data were normalized for maximum and minimum copy numbers.

[22] = tested on: HBV rtM204I; assay: microbe, parasite or virus in culture; type: cell-based; conditions: Hepatitis B virus, HepG2
[23] = tested on: human immunodeficiency virus 1; assay: Antiviral panel: human immunodeficiency virus 1; type: cell-based; conditions: up to 100 μM, data not shown
[24] = tested on: HBV rtS202G+M204I+M250V; assay: microbe, parasite or virus in culture; type: cell-based; conditions: Hepatitis B virus, HepG2
[25] = tested on: HBV genotype B (JN406371); assay: microbe, parasite or virus in culture; type: cell-based; conditions: Hepatitis B virus, HepG2

Cc1cn(C2OC(COP(=O)(NC(C)C(=O)OC(C)C)Oc3ccccc3)C(O)C2F)c(=O)[nH]c1=O (stereo not shown) [ATI-2173]
fraction unbound [1]: ~0.45
Cytotoxicity [2]: Minimal cytotoxicity and mild
EC50 [3]: 427 nM
EC50 [4]: 338 nM
Antiviral efficacy [5]: no detectable efficacy
EC50 [6]: 537 nM
EC50 [7]: > 10 µM
Cytotoxicity [8]: did not demonstrate any cytotoxicity
CC50 [9]: > 10 µM
EC50 [10]: > 10 µM
EC50 [11]: > 10 µM
Cytotoxicity [12]: Minimal cytotoxicity; also recorded: very mild
EC50 [13]: 386 nM
Mitochondrial toxicity (cell viability in glucose versus galactose medium) [14]: no apparent mitochondrial toxicity
EC50 [15]: > 10 µM
EC50 [16]: 162 nM
EC50 [17]: 416 nM
EC50 [18]: 234 nM
EC50 [19]: 227 nM
Hepatic extraction [20]: 82%
EC50 [21]: 260 nM
EC50 [22]: > 10 µM
Antiviral efficacy [23]: no detectable efficacy
EC50 [24]: > 10 µM
EC50 [25]: 212 nM
